Measurements from the supplement of paper PMC11208160.

test: recombinant barcode read abundance after kanamycin selection (control-corrected) (log10(CPM+1)); higher = more efficient recombination; sequences stand for … in AGTGCAGAGAAAATCGGCCAGTTTTCTCTGCCTGCAGTCCGCATGCCGT…AGATTTATGCAGCGGACTGCCTTTCTCCCAAAGTGATAAACCGGACAGTATCATGGACCGGTTTTCCCGGTAATCCGTATTTGCAAGGTTGGTTTCACT; site = the 11-nt target
In short: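 For this pooled screen, each oligo contained a promoter, a target, a barcode and the J23119-driven first 104 bases of the bridge RNA. Gibson cloning placed it into a vector supplying the remaining 73 bp and a T7-inducible recombinase, and the pool was co-electroporated into E. coli with a donor plasmid. Recombination efficiency is derived from barcode counts per million at recombinant junctions after averaging and control correction, and is expressed on a log scale as log10(CPM+1), with selection on chloramphenicol/ampicillin/kanamycin plus 0.1 mM IPTG against a chloramphenicol/ampicillin LB agar control.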
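Note: IS621 recombinase and bridge RNA in Escherichia coli cells.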

Sequence	recombinant barcode read abundance (log10)
CAGAGGCCTTGGGTTCTAACCTGTTGCCT (site CAGGGGCCTAG)	0.149
GCACTCCCTTGGGTTCTAACCTGTTGCCT (site GCACTCCCTAG)	0.0516
CAACGACCTTGGGTTCTAACCTGTTGCCT (site GAACGACCTAG)	0.171
GTCTCACCTTGGGTTCTAACCTGTTGCGG (site GTATCTCCTCC)	0.094
ACCAATCCTTGGGTTCTAACCTGTTGCCT (site ACCAATGCTAG)	0.177
CAAACAGCTTGGGTTCTAACCTGTTGCCT (site CAAACATCTAG)	0.113
GAGGAAGCTTGGGTTCTAACCTGTTGCCT (site GTGGAAGCTAG)	0.473
TAGGGCCCTTGGGTTCTAACCTGTTGCCT (site AAGGGCCCTAG)	0.111
GAAGTCCCTTGGGTTCTAACCTGTTGCCT (site GAAGTCCCTAG)	1.82
TACTGAACTTGGGTTCTAACCTGTTGCCT (site TACTGAACTAG)	0.159
GACACGCCTTGGGTTCTAACCTGTTGCAT (site GACACGCCTAG)	0.976
AGAAGCCCTTGGGTTCTAACCTGTTGCCT (site AGAAGCCCTAG)	1.51
GCTCTCCCTTGGGTTCTAACCTGTTGCCT (site GCACTCCCTAG)	0.0891
GGCACGACTTGGGTTCTAACCTGTTGCCT (site GGCACAACTAG)	0.274
GATAGCTCTTGGGTTCTAACCTGTTGCCT (site AATAGCTCTAG)	0.332
GGGCACTCTTGGGTTCTAACCTGTTGCAT (site GGGCACTCTAA)	0.75
TTAAAACCTTGGGTTCTAACCTGTTGCCT (site TTAAAACCTAG)	0.751
CAGCCTTCTTGGGTTCTAACCTGTTGCTT (site CAGCCTTCTAA)	0.718
CGCCTCGCTTGGGTTCTAACCTGTTGCCT (site CGCCTCTCTAG)	0.259
ACAGGCTCTTGGGTTCTAACCTGTTGCCT (site ACAGCCTCTAG)	0.0406
CCACTCCCTTGGGTTCTAACCTGTTGCCT (site CCACTGCCTAG)	0.0666
GACAAGTCTTGGGTTCTAACCTGTTGCCT (site GAAACGTCTAG)	0.173

Sequence	recombinant barcode read abundance (log10)
TAGGCGACTTGGGTTCTAACCTGTTGCCA (site ACCTTAGCTAA)	0.119
ACGATATCTTGGGTTCTAACCTGTTGCCT (site ACGATATCTAG)	1.37
CGGAATCCTTGGGTTCTAACCTGTTGCCT (site CGGAATCCTAT)	0.0895
GAGCGAGCTTGGGTTCTAACCTGTTGCCG (site GAGCGAGCTCC)	0.582
TCGAGGCCTTGGGTTCTAACCTGTTGCTA (site TCGAGGCCTTA)	0.0602
GTTACAACTTGGGTTCTAACCTGTTGCCT (site GTTACAACTAG)	0.263
CTATTCTCTTGGGTTCTAACCTGTTGCCT (site CTATTCGCTAG)	0.011
GGTAAGTCTTGGGTTCTAACCTGTTGCCT (site GGTAAGTCTAG)	0.298
CTGGGCACTTGGGTTCTAACCTGTTGCCT (site CTGGGCACTAG)	0.395
CCTACACCTTGGGTTCTAACCTGTTGCCT (site CCTACAACTAG)	0.0638
CGGGGAGCTTGGGTTCTAACCTGTTGCCG (site CGGGAAGCTAG)	0.427
TAGTACCCTTGGGTTCTAACCTGTTGCTG (site TAGTACCCTCA)	1.92
AGCTGGGCTTGGGTTCTAACCTGTTGCCT (site AGCTGGGCTAG)	0.235
AACTGATCTTGGGTTCTAACCTGTTGCCT (site AACTCATCTAG)	0.0693
CCTAGACCTTGGGTTCTAACCTGTTGCCT (site CCTAGAACTAG)	0.067
GGATGTCCTTGGGTTCTAACCTGTTGCGT (site CTATGTCCTAC)	0.29
TAACTTACTTGGGTTCTAACCTGTTGCAT (site TAACTTACTAT)	0.341
ACTAGAGCTTGGGTTCTAACCTGTTGCCT (site ACTAGAGCTAG)	0.198
CTTAGGACTTGGGTTCTAACCTGTTGCCA (site CTTAGGACTTG)	0.265
TTGGAAGCTTGGGTTCTAACCTGTTGCCT (site TTGGTAGCTAG)	2.19
CCGGTGACTTGGGTTCTAACCTGTTGCCT (site CCGGTGACTAG)	0.743
GGAGGGACTTGGGTTCTAACCTGTTGCGT (site GGTCGGACTAC)	0.0283

Sequence	recombinant barcode read abundance (log10)
CCGGTTGCTTGGGTTCTAACCTGTTGCCT (site CCGGTTGCTAG)	2.76
GTCGGGCCTTGGGTTCTAACCTGTTGCCT (site TTCGGGCCTAG)	0.126
CCTAGCACTTGGGTTCTAACCTGTTGCGA (site CCTCGCACTTC)	0.0896
AAACCACCTTGGGTTCTAACCTGTTGCCT (site AAACCACCTAG)	1.49
ACTTGCTCTTGGGTTCTAACCTGTTGCTT (site ACTAGCTCTAG)	0.448
ACCCAAACTTGGGTTCTAACCTGTTGCCT (site ACCCAAGCTAG)	0.161
GGAGAGACTTGGGTTCTAACCTGTTGCAT (site ACGTGTCCTCC)	0.149
AACACTCCTTGGGTTCTAACCTGTTGCTT (site AACACTCCTAA)	0.0689
ACCAAAGCTTGGGTTCTAACCTGTTGCCA (site ACCAAAGCTTG)	0.115
GATGGTACTTGGGTTCTAACCTGTTGCAT (site ACGCACTCTCG)	0.0471
GCCAAACCTTGGGTTCTAACCTGTTGCTA (site GTCAAGCCTTA)	0.176
CGCGATCCTTGGGTTCTAACCTGTTGCCT (site CGCGATCCTAG)	0.431
CTCTTGACTTGGGTTCTAACCTGTTGCTT (site CTCTGGACTAA)	0.0764
CTAAAAGCTTGGGTTCTAACCTGTTGCCA (site CTAAAAGCTTG)	0.493
CTCTGTCCTTGGGTTCTAACCTGTTGCTA (site CTCTGTCCTTA)	0.346
CCTGATTCTTGGGTTCTAACCTGTTGCCT (site CCTGAATCTAG)	0.0629
TAGGCTACTTGGGTTCTAACCTGTTGCAT (site TAGGCTACTCT)	0.301
CGAGGCCCTTGGGTTCTAACCTGTTGCTT (site CGAGGCCCTAA)	1.93
TGAGTGCCTTGGGTTCTAACCTGTTGCTT (site TGAGTTCCTAA)	0.0622
GTGTCTCCTTGGGTTCTAACCTGTTGCGA (site GAGTGTCCTTC)	0.00692
AGCCTTGCTTGGGTTCTAACCTGTTGCCT (site AGCTTTGCTAG)	0.167
ACGCACACTTGGGTTCTAACCTGTTGCCT (site ACGCACACTAG)	0.214
